Measurements: US20040235717A1, “Suppression of androgen receptor transactivation through new pathways to ar and ar coactivators and repressors” (priority 2001, published 2004)
Entries after “also recorded” stand apart in the source; their conditions may differ.

Key:
[1] = system: AR transactivation; test: AR transactivation, MMTV-CAT reporter in DU145 cells transfected with AR; format: cell-based, human
Source text: 250. To dissect the divergent effects of IL-6 in prostate tumor growth, Qui, Y. et al., Nature 393, 83-85 (1998); Hobisch, A. et al., Cancer Res. 58, 4640-4645 (1998); Ritchie, C. K. et al., Endocrinology 138, 1145-1150 (1997), the potential influences of IL-6 on the transactivation of AR, the master regulator of the prostate tumor growth were studied. Chang, C. et al., Science 240, 324.326 (1988); Chang, C. et al., Crit. Rev. Eukaryotic Gene Expression 5, 97-125 (1995). Because IL-6 has two major signal cascades, mitogen-activated protein kinase (MAPK) and phosphatidylinositol 3-kinase (PI3K), Qui, Y. et al., Nature 393, 83-85 (1998); Qui, Y. et al., Proc. Natl. Acad. Sci. USA 95, 3644-3649 (1998), inhibitors were applied to specifically block one of these two IL-6 signal pathways. DU145 cells were transfected for 24 h with AR and MMTV-CAT reporter gene. After transfection, the cells were serum starved for 24 h. Next, 20 μM LY294002, P098059 or vehicle was added to serum-free medium 30 min prior to IL-6 treatment. […] The cells were then harvested and AR transactivation was measured by CAT activity. […] Vlahos, C. J. et al., J. Biol. Chem. 269, 5241-5148 (1994). […] Alessi, D. R. et al., J. Biol. Chem. 270, 27489-27494 (1995).
251. IL-6's effect on PI3K activity was tested. After serum starvation for 24 h, LNCaP, PC-3 or DU145 cells were treated with 50 μg/ml IL-6 for 30 minutes. The cells were then harvested. PI3K activity was measured by using phosphatidylinositol (PT) as a substrate. […] The transactivation was measured by CAT activity.
252. Focus then turned to the two major downstream effectors of PI3K: a serine/threonine kinase (Akt/PKB) and a ribosomal S6 kinase (p70S6k). Franke, T. F. et al., Cell 88,435-437 (1997). […] The transactivation activity was determined after 24 h transfection.
262. The DU145 and PC-3 cells were maintained in Dulbecco's Minimum Essential Medium (DMEM) containing penicillin (25 μg/m1), streptomycin (25 μg/ml), and 5% fetal calf serum (FCS). The LNCaP cells were maintained in RPMI-1640 with 10% FCS. Transfections were performed using the calcium phosphate precipitation method, as previously described. Yeh, S. et al., Proc. Natl. Acad. Sci. USA 93, 5517-5521(1996).
277. The DU145 and PC-3 cells were maintained in Dulbecco's Minimum Essential Medium (DMEM) containing penicillin (25 U/ml), streptomycin (25 μg/ml), and 5% fetal calf serum (FCS). The LNCaP cells were maintained in RPMI-1640-10% FCS. Transfections were performed using the calcium phosphate precipitation method in PC-3 and DU145, as previously described. Yeh, S., Lin, H. K., Kang, H. Y., Thin, T. H., Lin, M. F. & Chang, C. (1999) Proc Natl Acad Sci U S A 96, 5458-63. LNCaP cells were transfected using SuperFect™ according to standard procedures (Qiagen).

[2] = system: p21 expression; test: p21 promoter activity (luciferase) and p21 protein expression; format: cell-based
Experimental: 18. […] (A) Akt suppressed androgen/AR-induced p21 promoter activity. […] (B) Androgen/AR-induced PC-3(AR)6 apoptosis and p21 protein expression was blocked by Akt PC-3(AR)6 was transfected with pCDNA3, cAkt, or dAkt, as indicated, for 16 h. […] (C) AR-induced p21 protein expression was enhanced by dAkt in LNCaP cells. […] LNCaP stable transfection with dAkt was confirmed by western blot assay using phospho-Akt (Ser473) antibody. […] TPA was then added for another 24 h and cell apoptosis was determined by TUNEL assay. […] IGF-1 was added for another 30 min, followed by 10 nM TPA treatment for another 24 h. The apoptosis was determined by TUNEL assay. The data are means±s.d. from three independent experiments.

[3] = system: AR protein stability; test: Pulse-chase labeling of AR in COS-1 cells; format: cell-based; conditions: LY294002 20 μM
Experimental: 30. […] The cells were harvested for Western blot analysis. […] Western blot analysis was performed and AR and PTEN were detected by AR antibody or PTEN antibody. (C) PTEN-C1 cells were treated with 4 μg/ml Dox in 10% CDS media for 48 h. Total RNA was prepared and Northern blot analysis was performed using [^32P]-dCTP-labeled AR (aa, 1-389) as a probe. (D) COS-1 cells were transfected with AR along with pCDNA3 or PTEN in 10% CDS media for 16 h. […] The cell extracts were immunoprecipitated with AR antibody and subjected to SDS-PAGE followed by autoradiography. Data were from three identical results. (E) COS-1 cells were transfected with AR along with pCDNA3 or dAkt in 10% CDS media for 16 h, pulsed with [^35S]-methionine for 45 min, and then harvested at different chase times as indicated. LY294002 (20 μM) was added 2 h before pulsing with [^35S]-methionine.
317. Pulse-chase experiments were performed as described (Lo et al. (1999) Nat Cell Biol 1, 472-8) with some modifications. Briefly, COS-1 cells were transfected with pSG5-AR in combination with pCDNA3 or pCDNA3 PTEN in 10% CDS media for […]. Cells were grown under serum starvation conditions for 2 h in methionine/cysteine-deficient medium, and then the cells were pulsed for 45 min with 200 μCi/ml [^35S]-methionine/cysteine (NEN). […]

[4] = system: estrogen receptor (ER) transactivation; test: ER transactivation, ERE-luc in PC-3 cells transfected with ERα; format: cell-based, human; conditions: 10 nM E2
Experimental: 26. […] The cells were harvested and assayed for luciferase activity using MMTV-luc as a reporter. […] The cells were harvested for Northern blot analysis. […] The cells were harvested and assayed for the luciferase activity. […] (E) The PC-3 cells were transfected with ERα along with plasmids, as indicated, using ERE-luc as a reporter for 16 h, followed by 10 nM E2 treatment for another 16 h. The cells were harvested for luciferase assay. Data are means±s.d. from three independent experiments.
312. […] The cells were lysed and the luciferase activity was detected by the dual luciferase assay according to standard procedures.

## dAkt: dominant-negative Akt, a kinase deficient mutant, K179A
[1]; presence of androgen
  Effect on DHT-induced AR transactivation (CAT activity): induce AR transactivation in a dose-dependent manner; also recorded: induce wtAR transactivation in a dose-dependent manner
[1]; rapamycin 20 nM 30 min prior to 1 nM DHT, dAkt co-transfected
  Effect on p110/p110*-repressed AR transactivation: reversed the p110-repressed AR transactivation; also recorded: reversed this p110*-repressed AR transactivation
[2]; LNCaP stably transfected with dAkt, 10 nM DHT 2 days, 2.5 fold without dAkt
  p21 expression in response to androgen: 14.5 fold
[2]; PC-3 cells, transfected
  Effect on androgen/AR-induced p21 expression: enhanced p21 expression in a dose-dependent manner
[3]
  AR degradation: did not promote AR degradation
[4]
  Effect on ER transactivation: suppressed ER transactivation
